Test results taken from PMC12063173, “Metabolic Profiling of a Mediterranean-Inspired (Poly)phenol-Rich Mixture in the Brain: Perfusion Effect and In Vitro Blood–Brain Barrier Transport Validation” (Journal of Agricultural and Food Chemistry, 2025).
Entries after “also recorded” stand apart in the source; their conditions may differ.

Legend:
[1] = Perfused brain (PB) kinetics of phenolic metabolites after oral capsule; assay type: in vivo, Sprague–Dawley rats; design: AUC0-t PB: concentration or dose not given beside the values; details: perfused brain; for half-life: read-out: T1/2 PB (converted)
Excerpt: (§1) Statistical analyses were applied depending on the experimental context.

[2] = Nonperfused brain (NPB) kinetics of phenolic metabolites after oral capsule; assay type: in vivo, Sprague–Dawley rats; design: AUC0-t NPB: concentration or dose not given beside the values; details: for Tmax / MRT last / half-life: male, Sprague-Dawley, rat, 22 mg extract blend per capsule, one capsule per animal; for MRT last: read-out: MRT0-t NPB; for half-life: read-out: T1/2 NPB (converted)
Excerpt: as §1

[3] = tested on: human brain microvascular endothelial cells (HBMECs); experiment: In vitro blood–brain barrier transport (Transwell); assay type: in vitro ADME; details: 2 h; for transport efficiency in MIXperc compared with MIXeq / transport efficiency in both mixtures and as individual molecules: HBMEC; for transport efficiency in MIXperc compared with MIXeq: mixtures at 2.5 μM final; for transport percentage, individual compounds: HBMEC monolayer, lower compartment / total concentration; for transport percentage, individual compounds / transport efficiency in both mixtures and as individual molecules: 2.5 μM
Method: The BBB transport model was established using human brain microvascular endothelial cells (HBMECs), following a methodology previously described.[49] Cells were maintained at 37 °C in a humidified environment with 5% CO2. HBMECs were seeded on 12-well Transwell inserts (12 mm, 0.4 μm pore polyester membrane; Corning, Madrid, Spain) and cultured for 6 days to form confluent monolayers suitable for transport studies. Transport assays were carried out in Hanks’ Balanced Salt Solution (HBSS) supplemented with 0.1% fetal bovine serum (FBS, v/v). The cells were exposed on the apical side to individual phenolic metabolites detected in the brain from the animal study, a representative mixture containing equal concentrations of these metabolites, or a physiological mixture reproducing their relative percentages as observed in the brain. All treatments were applied at a final concentration of 2.5 μM for 2 h (Supporting Information, Table S3). The integrity of the cell monolayers was confirmed by measuring transendothelial electrical resistance (TEER) at the start of the experiment (0 h) and after the last time point (2 h) using an EVOM2 Epithelial Volt Ohm Meter (World Precision Instruments, Inc., USA).
Samples from the apical and basolateral compartments were stored at −80 °C for further analysis. Transport of the compounds was evaluated using UPLC-qTOF as described elsewhere,[38] and transendothelial permeability expressed as a percentage of the ratio between the concentration in the basolateral compartment relative to the total concentration in both compartments.
Finally, one-way ANOVA with Tukey’s multiple comparisons test was exclusively applied to in vitro BBB transport experiments. The three tested conditions for each compound (individual compound, a mixture containing equal concentrations of these compounds, or a physiological mixture reproducing their relative percentages as observed in the brain were evaluated. Plots were performed using GraphPad 9.0 (GraphPad Software, Boston, Massachusetts, USA). Statistical significance was set at P < 0.05.
Figure 3 Transport efficiency of phenolic metabolites across the BBB. Human brain microvascular endothelial cells (HBMEC) were seeded onto semipermeable membranes. […] Detailed composition of both mixtures is given in the Supporting Information, Table S3. Media from the upper and lower compartments were collected, and endothelial transport was evaluated by UPLC-qTOF-MS. The transport percentage (%) was determined by the concentration ratio in the lower compartment to the total concentration (upper and lower compartments). All values are presented as mean ± SD from three independent experiments.

[4] = Targeted metabolomics (UPLC-ESI-QTOF) identification of metabolites in plasma, PB and NPB; details: P plasma, PB perfused brain, NPB nonperfused brain, 1-24 h after oral capsule
Method: (§2) Adult male Sprague–Dawley rats weighing 250–300 g were purchased from the Animal Experimentation Service of the University of Murcia (Murcia, Spain). […] Based on the experimental design shown in Figure 1, one capsule was administered by gavage to each fasting animal. A total of 40 animals were used in the study. Thirty animals received a capsule containing a mixture of different Mediterranean food extracts, while ten animals received a capsule with microcrystalline cellulose and served as the control group. […] To minimize animal use in accordance with the 3Rs principle, two control animals were sacrificed at each time point (one PB and one NPB). These controls served to identify potential endogenous compounds or background signals not related to the extract administration. All animals were fasted overnight prior to gavage and euthanized with carbon dioxide.
(§3) Plasma samples were extracted with ACN:formic acid (98:2, v/v), centrifuged and evaporated in a speed vacuum concentrator (Savant SPD14 0DDA). The evaporated samples were resuspended in 100 μL MeOH and filtered through 0.22 μm regenerated cellulose filters (Minisart Sartorius, Madrid, Spain). Next, half of the animals at each time point were perfused with ice-cold phosphate-buffered saline, and the blood-free brain was dissected out immediately and stored at – 80 °C until analysis, as previously reported.[37],[48]
(§4) Approximately 400 mg of brain tissue (perfused or nonperfused) was weighed and extensively washed with cold PBS to avoid external blood contamination. After weighting, the samples were placed in 2 mL screw cap tubes. […] The evaporated samples were resuspended in 100 μL MeOH and filtered through 0.22 μm regenerated cellulose filters.
(§5) We performed a targeted metabolomic analysis using an ultrahigh-performance liquid chromatographic system (UPLC) coupled to a quadrupole-time-of-flight (QTOF) mass spectrometer. The phenolic compounds were separated using an Agilent Poroshell 120 column (100 mm × 3 mm, 2.7 μm) and a 5 μL injection volume. […] The flow rate was set constant at 0.4 mL/min. The spectra were acquired in the m/z range from 100 to 1100, in negative polarity mode and an acquisition rate of 1.5 spectra per second. Quantitative data were processed using the Mass HunterQualitative Analysis software (version B.08.00, Agilent). A target screening strategy was applied for the qualitative analysis of possible metabolites derived from the consumption of the Mediterranean blend. […] These compounds encompass derived metabolites conjugated (glucuronides, sulfates, and sulfoglucuronides, among others). The exact mass of the proposed compound was extracted using an extraction window of 0.01 m/z. Metabolite quantification was performed by integrating the peak areas of their extracted ion chromatograms (EICs). Compounds with available standards were quantified using calibration curves derived from the respective standards, while other metabolites were semiquantified based on their peak area values.

[5] = Plasma pharmacokinetics of phenolic metabolites after oral capsule of (poly)phenol-rich Mediterranean extract mixture; details: for AUC0-t plasma / MRT0-t plasma / T1/2 plasma / Tmax plasma: oral capsule, 0-24 h, n = 6 per time point
Method: (§6) Adult male Sprague–Dawley rats weighing 250–300 g were purchased from the Animal Experimentation Service of the University of Murcia (Murcia, Spain). […] Animals were maintained in a temperature-controlled environment with a 12 h light-dark cycle. […] Based on the experimental design shown in Figure 1, one capsule was administered by gavage to each fasting animal. A total of 40 animals were used in the study. Thirty animals received a capsule containing a mixture of different Mediterranean food extracts, while ten animals received a capsule with microcrystalline cellulose and served as the control group. At each time point (1, 3, 6, 8, and 24 h postadministration), six animals from the extract group were sacrificed, three with transcardial perfusion using saline (PB) and three without perfusion (NPB), to assess the distribution of extract-derived metabolites in plasma and brain. To minimize animal use in accordance with the 3Rs principle, two control animals were sacrificed at each time point (one PB and one NPB). […] All animals were fasted overnight prior to gavage and euthanized with carbon dioxide.
(§7) Blood samples collected by cardiac puncture in sodium heparin tubes at each time point after sacrifice were immediately centrifuged at 14,000 × g for 15 min at 4 °C, and the plasma was stored at −80 °C until their analysis. Plasma samples were extracted with ACN:formic acid (98:2, v/v), centrifuged and evaporated in a speed vacuum concentrator (Savant SPD14 0DDA). The evaporated samples were resuspended in 100 μL MeOH and filtered through 0.22 μm regenerated cellulose filters (Minisart Sartorius, Madrid, Spain).
(§8) We performed a targeted metabolomic analysis using an ultrahigh-performance liquid chromatographic system (UPLC) coupled to a quadrupole-time-of-flight (QTOF) mass spectrometer. The phenolic compounds were separated using an Agilent Poroshell 120 column (100 mm × 3 mm, 2.7 μm) and a 5 μL injection volume. The mobile phases used were 0.1% formic acid in water (A) and 0.1% formic acid in ACN (B), and the gradient was: 0–3 min, 5–15% B; 3–11 min, 15–30% B; 11–14 min, 30–50% B, 14–16 min, 50–90% B. Finally, the B content was decreased to the initial conditions (5%) in 1 min, and the column re-equilibrated for 4 min. The flow rate was set constant at 0.4 mL/min. The spectra were acquired in the m/z range from 100 to 1100, in negative polarity mode and an acquisition rate of 1.5 spectra per second.

[6] = rat, in vivo
Method: as §2, §3, §4, §5

in vivo = details: male, Sprague-Dawley, rat, po
Method: as §6, §7, §8

[7] = design: method as in doi:10.1016/j.jff.2015.09.019; details: human, even upon high free ellagic acid intake; cited from earlier work
[8] = oral capsule, 0-24 h, n = 3 per time point
[9] = nonperfused brain, oral capsule, 0-24 h, n = 3 per time point
[10] = read-out: Cmax plasma, oral capsule, 0-24 h, n = 6 per time point
[11] = male, Sprague-Dawley, rat, 22 mg extract blend per capsule, one capsule per animal, oral capsule, 0-24 h, n = 3 per time point
[12] = male, Sprague-Dawley, rat, po, 22 mg extract blend per capsule, one capsule per animal

AUC0-t PB [1, 8] [pmol·h/g]	Cmax PB [1, 8] [pmol/g tissue]	AUC0-t NPB [2, 9] [pmol·h/g]	Cmax NPB [2, 9] [pmol/g tissue]	Tmax [1, 11] [h]	Tmax [2, 9] [h]	MRT last [2, 9] [h]	half-life [2, 9] [h]	transport percentage, individual compounds [3]	AUC(0-t) [5, 12] [µM·h]	Cmax [5, 12] [nM]	MRT last [5, 12] [h]	Tmax [5, 12] [h]	half-life [5, 12] [h]	Structure (SMILES)	transport efficiency in MIXperc compared with MIXeq [3]	occurrence [4]	further results
11 ± 6.8	1.0 ± 0.5	13 ± 11	4.0 ± 3.6	3.3 ± 2.5	7.5 ± 3.1	11 ± 4.1	20 ± 15	exceeding 20%	0.481 ± 0.353	39 ± 20	9.77	13 ± 11	6.9	O=C(O)CCc1cccc(O)c1 [3-(3-hydroxyphenyl) propionic acid]		PB, NPB, P	MRT last ([1]; male, Sprague-Dawley, rat, 22 mg extract blend per capsule, one capsule per animal, oral capsule, 0-24 h, n = 3 per time point, read-out: MRT0-t PB): 11 ± 6.9 h; half-life [1, 11]: 11 ± 6.9 h; transport efficiency in both mixtures and as individual molecules [3]: relatively consistent transport efficiencies; occurrence ([4]; listed as 3-(3-hydroxyphenyl)propionic acid): consistently detected in plasma and brain at all time points
0.1 ± 0.1	0.1 ± 0.01	2.2 ± 0.1	0.2 ± 0.04	5 ± 1.7	15 ± 13			< 5%	0.0084 ± 0.01	2.2 ± 2.6	8.5 ± 5.5	5.2 ± 2.2	3.9 ± 4.3	O=S(=O)(O)Oc1cc(O)cc(C=Cc2ccc(O)cc2)c1 [resveratrol 3-O-sulfate]	lower transport percentages	detected in plasma, PB, and NPB; also recorded: PB, NPB, P	
11 ± 2.8	0.7 ± 0.3	18 ± 1	0.9 ± 0.1	4.5 ± 5	24			< 5%	0.127 ± 0.031	16 ± 8.6	86 ± 138	2.6 ± 0.9	61 ± 94	O=C(O)CCc1ccc(O)c(O)c1 [dihydrocaffeic acid]		PB, NPB, P	occurrence ([4]; listed as 3-(3,4-dihydroxyphenyl)propionic acid): consistently detected in plasma and brain at all time points
														O=S(=O)(O)Oc1ccc(C=Cc2cc(O)cc(O)c2)cc1 [resveratrol 4’-O-sulfate]		restricted to plasma	concentration–time profile in brain (Figure 2) [6]: Not detected; AUC(0-t) (in vivo): 0.026 ± 0.027 µM·h; Cmax (in vivo): 2.9 ± 2.8 nM; MRT last (in vivo): 10.7 h; Tmax (in vivo): 7.3 ± 1.2 h; half-life (in vivo): 5.6 h
30 ± 6.5	2.4 ± 0.8	33 ± 4.8	3.4 ± 0.7	2 ± 1.2	2.3 ± 1.2	102 ± 62	70 ± 46		0.055 ± 0.011	4.8 ± 1.9	43 ± 45	7.4 ± 9.5	29 ± 32	O=C(O)CCCCc1cccc(O)c1 [5-(3-hydroxyphenyl)-valeric acid]	lower transport percentages	PB, NPB, P	half-life [1, 11]: 39 ± 19 h; occurrence ([4]; listed as 5-(3-hydroxyphenyl)valeric acid): consistently detected in plasma and brain at all time points; concentration in plasma (approximate) [5]: approximately 5 nM
1.5 ± 1.1	0.1 ± 0.08	7.1 ± 7.5	0.9 ± 0.9	16 ± 11	15 ± 13	56.9	36.3		0.0141 ± 0.0074	1.1 ± 0.8	103	10 ± 12		O=c1oc2c(O)c(O)cc3c(=O)oc4c(O)c(O)cc1c4c23 [ellagic acid]	significantly higher transport efficiencies	PB, NPB, P	concentration in NPB relative to PB ([2]; NPB versus PB): 9 fold; free ellagic acid concentration in plasma [7]: ≤ 100 nM
	2.8 ± 2.4	1.6 ± 0.6	0.2 ± 0.1					exceeding 20%						O=C(O)C=Cc1ccc(OS(=O)(=O)O)cc1 [p-coumaric acid 4-O-sulfate]		PB, NPB, P	PB concentration relative to ferulic acid 4-O-sulfate [1]: 14 fold; MRT0-t PB [1, 8]: 30 ± 20 h; T1/2 PB [1, 8]: 23.85 h; Tmax PB [1, 8]: 19 ± 12 h; Tmax NPB [2, 9]: 3.0 ± 0.0 h; transport efficiency in both mixtures and as individual molecules [3]: relatively consistent transport efficiencies; AUC0-t plasma [5]: 0.293 ± 0.154 µM·h; MRT0-t plasma [5]: 45 ± 37 h; T1/2 plasma [5]: 33 ± 28 h; Tmax plasma [5]: 3.6 ± 2.6 h; Cmax [5, 10]: 44 ± 47 nM

Structure (SMILES)	AUC0-t PB [1, 8] [pmol·h/g]	Cmax PB [1, 8] [pmol/g tissue]	AUC0-t NPB [2, 9] [pmol·h/g]	Cmax NPB [2, 9] [pmol/g tissue]	Tmax [1, 11] [h]	Tmax [2, 9] [h]	MRT last [2, 9] [h]	half-life [2, 9] [h]	transport percentage, individual compounds [3]	AUC(0-t) [5, 12] [µM·h]	Cmax [5, 12] [nM]	MRT last [5, 12] [h]	Tmax [5, 12] [h]	half-life [5, 12] [h]	transport efficiency in MIXperc compared with MIXeq [3]	occurrence [4]	further results
O=C(O)[C@H]1O[C@@H](Oc2cc(O)cc(CCc3ccc(O)cc3)c2)[C@H](O)[C@@H](O)[C@@H]1O [dihydroresveratrol 3-O-glucuronide]	1.3 ± 0.7	0.4 ± 0.1	5.3 ± 2.8	0.5 ± 0.1											significantly higher transport efficiencies	PB, NPB, P	MRT0-t PB [1, 8]: 23 ± 26 h; T1/2 PB [1, 8]: 15 ± 18 h; Tmax PB [1, 8]: 3.3 ± 2.1 h; MRT0-t NPB [2, 9]: 44 ± 1 h; T1/2 NPB [2, 9]: 27 ± 1 h; Tmax NPB [2, 9]: 6.7 ± 1.2 h; AUC0-t plasma [5]: 0.993 ± 0.558 µM·h; MRT0-t plasma [5]: 14 ± 5.8 h; T1/2 plasma [5]: 8.1 ± 3.2 h; Tmax plasma [5]: 6.2 ± 2.1 h; Cmax [5, 10]: 93 ± 45 nM
